pEC50: −log10 of the molar value.
How the values were obtained:
human mAChR M1 [1] = target: T1, human mAChR M1 (Homo sapiens, UniProt P11229); assay: mAChR M1 cell-based functional assay (calcium mobilization), PAM activity: increase in the EC20 acetylcholine response; settings: CHO-K1 cells expressing hM1; calcium flux (Fluo-4); potentiation of EC20 acetylcholine response
T1 sequence (P11229 1-460): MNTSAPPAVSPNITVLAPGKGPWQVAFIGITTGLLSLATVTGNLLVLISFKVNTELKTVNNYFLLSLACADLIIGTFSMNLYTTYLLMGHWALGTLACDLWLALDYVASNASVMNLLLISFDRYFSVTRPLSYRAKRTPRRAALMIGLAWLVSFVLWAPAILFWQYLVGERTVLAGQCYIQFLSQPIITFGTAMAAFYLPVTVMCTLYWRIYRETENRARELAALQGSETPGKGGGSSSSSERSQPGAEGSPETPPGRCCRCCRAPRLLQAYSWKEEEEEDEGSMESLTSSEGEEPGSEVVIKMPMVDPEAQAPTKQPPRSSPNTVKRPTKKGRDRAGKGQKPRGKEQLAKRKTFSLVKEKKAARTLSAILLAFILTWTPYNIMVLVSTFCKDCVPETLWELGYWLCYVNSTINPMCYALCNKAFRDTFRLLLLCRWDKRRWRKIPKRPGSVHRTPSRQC
Excerpt: (§1) Chinese hamster ovary (CHO-K1) cells stably expressing rat (r)M1 were purchased from the American Type Culture Collection and cultured according to their indicated protocol. CHO cells stably expressing human (h)M2, hM3, and hM5 were described previously (Levey, et al., 1991); hM1 and hM4 cDNAs were purchased from Missouri S&T cDNA Resource; rM4 cDNA was provided by T. I. Bonner (National Institutes of Health, Bethesda, Md.). rM2 and rM3 were cloned from a rat brain cDNA library and sequence verified. hM1, rM2, rM3, hM4, and rM4 cDNAs were used to stably transfect CHO-K1 cells purchased from the American Type Culture Collection using Lipofectamine2000. To make stable rM2, hM2, rM3, hM4, and rM4 cell lines for use in calcium mobilization assays, these cells also were stably transfected with a chimeric G-protein (Gqi5) (provided by B. R. Conklin, University of California, San Francisco) using Lipofectamine 2000. rM1, hM1, rM3, hM3, rM5, and hM5 cells were grown in Ham's F-12 medium containing 10% heat-inactivated fetal bovine serum (FBS), 20 mM HEPES, and 50 μg/mL G418 sulfate. rM2-Gqi5, hM2-Gqi5, and hM4-Gqi5 cells were grown in the same medium also containing 500 μg/mL Hygromycin B. Stable rM4-Gqi5 cells were grown in DMEM containing 10% heat-inactivated FBS, 20 mM HEPES, 400 μg/mL G418 sulfate, and 500 μg/mL Hygromycin B.
(§2) For high throughput measurement of agonist-evoked increases in intracellular calcium, CHO-K1 cells stably expressing muscarinic receptors were plated in growth medium lacking G418 and hygromycin at 15,000 cells/20 μL/well in Greiner 384-well black-walled, tissue culture (TC)-treated, clear-bottom plates (VWR). Cells were incubated overnight at 37° C. and 5% CO2. The next day, cells were washed using an ELX 405 (BioTek) with four washes (80 μL) of assay buffer then aspirated to 20 μL. Next, 20 μL of 16 μM Fluo-4/acetoxymethyl ester (Invitrogen, Carlsbad, Calif.) prepared as a 2.3 mM stock in DMSO and mixed in a 1:1 ratio with 10% (w/v) Pluronic F-127 and diluted in assay buffer was added to the wells and the cell plates were incubated for 50 min at 37° C. and 5% CO2. Dye was removed by washing with the ELX 405 (four 80 μL washes of assay buffer) then aspirated to 20 μL. Compound master plates were formatted in an 11 point CRC format (1:3 dilutions) in 100% DMSO with a starting concentration of 10 mM using the BRAVO liquid handler (Agilent). Test compound CRCs were then transferred to daughter plates (240 nL) using the Echo acoustic plate reformatter (Labcyte, Sunnyvale, Calif.) and then diluted into assay buffer (40 μL) to a 2× stock using a Thermo Fisher Combi (Thermo Fisher Scientific, Waltham, Mass.).
(§3) Calcium flux was measured using the Functional Drug Screening System (FDSS) 6000 (Hamamatsu Corporation, Tokyo, Japan) as an increase in the fluorescent static ratio. Compounds were applied to cells (20 μL, 2×) using the automated system of the FDSS 6000 at 4 s into the 300 s protocol and the data were collected at 1 Hz. At 144 s into the 300 s protocol, 10 μL of an EC20 concentration of the muscarinic receptor agonist acetylcholine was added (5×), followed by the addition of 12 μL an EC80 concentration of acetylcholine at the 230 s time point (5×). Agonist activity was analyzed as a concentration-dependent increase in calcium mobilization upon compound addition. Emax values for agonist activity are expressed relative to the maximum for acetylcholine. Positive allosteric modulator activity was analyzed as a concentration-dependent increase in the EC20 acetylcholine response. Antagonist activity was analyzed as a concentration-dependent decrease in the EC80 acetylcholine response. Concentration-response curves were generated using a four-parameter logistical equation in XLfit curve fitting software (IDBS, Bridgewater, N.J.) for Excel (Microsoft, Redmond, Wash.) or Prism (GraphPad Software, Inc., San Diego, Calif.).

human mAChR M1 [2] = target: T1, human mAChR M1; assay: mAChR M1 cell-based functional assay (calcium mobilization), agonist activity upon compound addition alone; settings: CHO-K1 cells expressing hM1; for pEC50: calcium mobilization upon compound addition, no acetylcholine; for Emax: compound alone, relative to the maximum for acetylcholine
Excerpt: as §1, §2, §3

## Cn1ccc(-c2ccc(Cc3cc(C(=O)N[C@H]4CCCC[C@@H]4O)nc(-c4ccn(C)n4)c3)cc2)n1 [Compound 34, N-((1S,2S)-2-hydroxycyclohexyl)-6-(1-methyl-1H-pyrazol-3-yl)-4-(4-(1-methyl-1H-pyrazol-3-yl)benzyl)picolinamide]
Human mAChR M1 [1]
  pEC50: 5.69
  Emax: 63%
Human mAChR M1 [2]
  pEC50: < 5.00
  Emax: < 5%

## Cn1ccc(-c2ccc(Cc3cc(C(=O)NC4CCOCC4)nc(-c4ccn(C)n4)c3)cc2)n1 [Compound 35, 6-(1-methyl-1H-pyrazol-3-yl)-4-(4-(1-methyl-1H-pyrazol-3-yl)benzyl)-N-(tetrahydro-2H-pyran-4-yl)picolinamide]
Human mAChR M1 [1]
  Emax: 46%
Human mAChR M1 [2]
  pEC50: < 5.00
  Emax: < 5%

## Cn1ccc(-c2ccc(Cc3cc(C(=O)NC4CC5(COC5)C4)nc(-c4ccn(C)n4)c3)cc2)n1 [Compound 36, 6-(1-methyl-1H-pyrazol-3-yl)-4-(4-(1-methyl-1H-pyrazol-3-yl)benzyl)-N-(2-oxaspiro[3.3]heptan-6-yl)picolinamide]
Human mAChR M1 [1]
  pEC50: 5.43
  Emax: 38%
Human mAChR M1 [2]
  pEC50: < 5.00
  Emax: < 5%

## Cn1ccc(-c2ccc(Cc3cc(C(=O)N[C@H]4CCOC[C@@H]4O)nc(-c4ccn(C)n4)c3)cc2)n1 [Compound 37, N-((3R,4S)-3-hydroxytetrahydro-2H-pyran-4-yl)-6-(1-methyl-1H-pyrazol-3-yl)-4-(4-(1-methyl-1H-pyrazol-3-yl)benzyl)picolinamide]
Human mAChR M1 [1]
  pEC50: 5.81
  Emax: 76%
Human mAChR M1 [2]
  pEC50: < 5.00
  Emax: < 5%

## Cn1ccc(-c2ccc(Cc3cc(C(=O)N[C@H]4CCC[C@@H]4O)nc(-c4ccn(C)n4)c3)cc2)n1 [Compound 38, N-((1S,2S)-2-hydroxycyclopentyl)-6-(1-methyl-1H-pyrazol-3-yl)-4-(4-(1-methyl-1H-pyrazol-3-yl)benzyl)picolinamide]
Human mAChR M1 [1]
  pEC50: 5.57
  Emax: 39%
Human mAChR M1 [2]
  pEC50: < 5.00
  Emax: < 5%

## Cn1cc(-c2cc(Cc3ccc(-c4ccn(C)n4)cc3)cc(C(=O)N[C@H]3CCOC[C@@H]3O)n2)cn1 [Compound 39, N-((3R,4S)-3-hydroxytetrahydro-2H-pyran-4-yl)-4-(4-(1-methyl-1H-pyrazol-3-yl)benzyl)-6-(1-methyl-1H-pyrazol-4-yl)picolinamide]
Human mAChR M1 [1]
  pEC50: 5.55
  Emax: 57%
Human mAChR M1 [2]
  pEC50: < 5.00
  Emax: < 5%

## Cn1cc(-c2cc(Cc3ccc(-c4ccn(C)n4)cc3)cc(C(=O)N[C@H]3CCCC[C@@H]3O)n2)cn1 [Compound 40, N-((1S,2S)-2-hydroxycyclohexyl)-4-(4-(1-methyl-1H-pyrazol-3-yl)benzyl)-6-(1-methyl-1H-pyrazol-4-yl)picolinamide]
Human mAChR M1 [1]
  pEC50: 5.03
  Emax: 57%
Human mAChR M1 [2]
  pEC50: < 5.00
  Emax: < 5%

## Cc1c(Cc2ccc(-c3ccn(C)n3)cc2)cc(C(=O)N[C@H]2CCCC[C@@H]2O)nc1-n1cccn1 [Compound 41, N-((1S,2S)-2-hydroxycyclohexyl)-5-methyl-4-(4-(1-methyl-1H-pyrazol-3-yl)benzyl)-6-(1H-pyrazol-1-yl)picolinamide]
Human mAChR M1 [1]
  pEC50: 6.51
  Emax: 79%
Human mAChR M1 [2]
  pEC50: 5.11
  Emax: 26%

## Cc1c(Cc2ccc(-c3ccn(C)n3)cc2)cc(C(=O)NC2CCOCC2)nc1-n1cccn1 [Compound 42, 5-methyl-4-(4-(1-methyl-1H-pyrazol-3-yl)benzyl)-6-(1H-pyrazol-1-yl)-N-(tetrahydro-2H-pyran-4-yl)picolinamide]
Human mAChR M1 [1]
  Emax: 83%
Human mAChR M1 [2]
  pEC50: < 5.00
  Emax: < 5%

## Cc1c(Cc2ccc(-c3ccn(C)n3)cc2)cc(C(=O)N[C@H]2CCC[C@@H]2O)nc1-n1cccn1 [Compound 43, N-((1S,2S)-2-hydroxycyclopentyl)-5-methyl-4-(4-(1-methyl-1H-pyrazol-3-yl)benzyl)-6-(1H-pyrazol-1-yl)picolinamide]
Human mAChR M1 [1]
  pEC50: 5.89
  Emax: 85%
Human mAChR M1 [2]
  pEC50: ≤ 5.00
  Emax: 14%

## Cc1c(Cc2ccc(-c3ccn(C)n3)nc2)cc(C(=O)N[C@H]2CCOC[C@@H]2O)nc1-n1cccn1 [Compound 44, N-((3R,4S)-3-hydroxytetrahydro-2H-pyran-4-yl)-5-methyl-4-((6-(1-methyl-1H-pyrazol-3-yl)pyridin-3-yl)methyl)-6-(1H-pyrazol-1-yl)picolinamide]
Human mAChR M1 [1]
  pEC50: 5.96
  Emax: 83%
Human mAChR M1 [2]
  pEC50: ≤ 5.00
  Emax: 23%

## Cc1nc(-c2ccc(Cc3cc(C(=O)N[C@H]4CCOC[C@@H]4O)nc(-n4cccn4)c3C)cc2)co1 [Compound 45, N-((3R,4S)-3-hydroxytetrahydro-2H-pyran-4-yl)-5-methyl-4-(4-(2-methyloxazol-4-yl)benzyl)-6-(1H-pyrazol-1-yl)picolinamide]
Human mAChR M1 [1]
  pEC50: 6.06
  Emax: 47%
Human mAChR M1 [2]
  pEC50: < 5.00
  Emax: 8%

## Cc1c(Cc2ccc(-c3ccn(C)n3)nc2)cc(C(=O)N[C@H]2CCCC[C@@H]2O)nc1-n1cccn1 [Compound 46, N-((1S,2S)-2-hydroxycyclohexyl)-5-methyl-4-((6-(1-methyl-1H-pyrazol-3-yl)pyridin-3-yl)methyl)-6-(1H-pyrazol-1-yl)picolinamide]
Human mAChR M1 [1]
  pEC50: 6.06
  Emax: 85%
Human mAChR M1 [2]
  pEC50: ≤ 5.00
  Emax: 28%

## Cc1c(Cc2ccc(-c3cnn(C)c3)nc2)cc(C(=O)N[C@H]2CCCC[C@@H]2O)nc1-n1cccn1 [Compound 47, N-((1S,2S)-2-hydroxycyclohexyl)-5-methyl-4-((6-(1-methyl-1H-pyrazol-4-yl)pyridin-3-yl)methyl)-6-(1H-pyrazol-1-yl)picolinamide]
Human mAChR M1 [1]
  pEC50: 6.17
  Emax: 85%
Human mAChR M1 [2]
  pEC50: 5.04
  Emax: 29%

## Cc1nc(-c2ccc(Cc3cc(C(=O)N[C@H]4CCCC[C@@H]4O)nc(-n4cccn4)c3C)cc2)co1 [Compound 48, N-((1S,2S)-2-hydroxycyclohexyl)-5-methyl-4-(4-(2-methyloxazol-4-yl)benzyl)-6-(1H-pyrazol-1-yl)picolinamide]
Human mAChR M1 [1]
  pEC50: 6.08
  Emax: 59%
Human mAChR M1 [2]
  pEC50: 5.07
  Emax: 10%

## Cc1c(Cc2ccc(-c3ccn(C)n3)nc2)cc(C(=O)NC2CCOCC2)nc1-n1cccn1 [Compound 49, 5-methyl-4-((6-(1-methyl-1H-pyrazol-3-yl)pyridin-3-yl)methyl)-6-(1H-pyrazol-1-yl)-N-(tetrahydro-2H-pyran-4-yl)picolinamide]
Human mAChR M1 [1]
  Emax: 63%
Human mAChR M1 [2]
  pEC50: < 5.00
  Emax: < 5%
